Values of other authors as cited in patent publication US9173857B2, “Controlled dose drug delivery system” (Shire LLC, priority 2006, dated 2015).

How the values were obtained:
[1] = pulsatile capsule with release after a nominal 5-hr period; majority of subjects
[2] = wax-surfactant coating, higher coating level (60%)

Structure (SMILES) | amounts of the drug observed in the blood [1] | lag time of drug release [2] | time required for complete release after the lag time [2]
C[C@H](CS)C(=O)N1CCC[C@H]1C(=O)O [captopril] | no measurable amounts | – | –
Cn1c(=O)c2[nH]cnc2n(C)c1=O [theophylline] | – | two-hour | three hours
